For 107 compounds, melting point results are on record in a melting point compilation (Tetko et al.).

The melting point is the temperature, or range, at which the solid turns liquid. For the compound `FC(F)(F)c1nc2ccccc2[nH]1`, the melting point amounted to 210 °C.
For `O=C(Cl)c1cccnc1Cl` the value was 40 °C; for `CC(=O)C1(O)CCC2(C)C(CCC3C2CCC2(C)C3CCC23OCCO3)C1` (configuration not stated), 182 to 190 °C.
For `CC1CC(C)CC(C)C1` (configuration not stated) the value was -49.7 °C.
The compound `Oc1c(-c2ccccn2)n(N2CCCCC2)c2ccccc12` gave a melting point of 185 °C.
For `N#Cc1cc(C(F)(F)F)ccc1N1CCOCC1` the value was 53 to 55 °C; for `O=C1Cc2cc(C(=O)CBr)ccc2N1`, 225 °C.
On to `COc1ccccc1OCC(=O)O`, for which the melting point amounted to 120 °C.
In turn, `O=C(O)c1ccccc1S` came in with a melting point of 164 to 169 °C.
In the case of `S=C=Nc1ccc(Oc2ccccc2)nc1`, the melting point was in the range of 41 to 42 °C.
Under `CC(=O)Oc1ccccc1C(=O)OCC(=O)N(C)CC(N)=O` stands 132 °C; under `CC(C)(C)NC(=S)NC(C)(C)C`, 168 to 171 °C.
In turn, `Oc1ccc2c(O)c3ccccc3cc2c1O` displayed a melting point of 208 °C.
`CCC(Br)(CC)C(N)=O` came in with a melting point of 67 °C.
For the compound `CCCOC(=O)C1=C(C)NC(=S)NC1c1ccco1` (configuration not stated), the melting point was found to be 177 °C.
Under `CC1(C)OC(=O)c2ccccc21` stands 70 °C.
For `CC(=O)OC1CC[C@@]2(C)C(CC[C@@H]3[C@@H]2CC[C@@]2(C)[C@H]3CC[C@]2(O)CCc2ccccc2)C1` (some centres not stated) the value was 137 to 139 °C; for `O=C(O)CN(CC(=O)O)c1ccccc1`, 156 to 160 °C.
As to `Nc1ccc(C=C/C(=N/O)c2ccccc2)cc1`, the melting point lay within 138 to 139 °C.
`O=c1n(-c2ccccc2)c(=O)n2n1C1OC3c4ccccc4C1C32` (configuration not stated) came in with a melting point of 146 °C.
`Cc1ccc(C)c(CNC2=CC(=O)c3ccccc3C2=O)c1`: the melting point turned out to be 164 °C.
As to `Cc1ccc2nc(O)cc(C)c2c1`, the melting point was found to be 240 °C.
On to `Cc1ccc(S(=O)(=O)OCC2CCC(=O)N2)cc1` (configuration not stated), for which the melting point fell in the range of 122 to 129 °C.
`Nc1ccc(Cl)cc1C(=O)c1cccc(O)c1` registered a melting point of 190 to 192 °C.
Turning to `Cc1cc(C(F)(F)F)n2nc(N)c(/N=N/c3ccc(Cl)cc3Cl)c2n1`, the melting point amounted to 210 °C.
For `CC1(C)C(C=C(Cl)C(F)(F)F)C1C(=O)OC(C#N)c1cccc(Oc2ccccc2)c1` (configuration not stated) the value was 55.6 °C; for `O=C(O)c1cccc(N=C=S)c1`, 165 °C.
Compound `c1ccc(C23CC4CC(CC(C4)C2)C3)cc1` had a melting point of 84 to 85 °C.
For `CNc1ccc2oc(CC3OC4(CCC3C)OC(C(C)C(=O)c3ccc[nH]3)C(C)CC4C)nc2c1C(=O)O` (configuration not stated) the value was 182 °C; for `O=C(Cl)c1cccc(-c2nccs2)c1`, 80 to 80.5 °C.
Compound `O=C(C1=NOC2C(=O)N(c3ccc(Cl)cc3)C(=O)C12)c1ccccc1` (configuration not stated) showed a melting point of 137 °C.
`CC12CCC(=O)C3OC31CC(C1(O)CCC3(C)C(=O)CCC34OC14)C2=O` (configuration not stated) came in with a melting point of 182 °C.
As for `Cc1ccc2cc([N+](=O)[O-])ccc2n1`, the melting point fell in the range of 165 to 166 °C.
On to `CC(=O)NC(C)c1ccccc1` (configuration not stated), for which the melting point was in the range of 102 to 103 °C.
In turn, `O=C(O)Cc1cccc(Br)c1` had a melting point of 101 °C.
`OCCSCCSCCO` displayed a melting point of 64 to 68 °C.
For `NCc1ccc(Cl)nc1` the value was 30 °C; for `Cc1nc(-c2cc(CO)no2)cs1`, 120 °C.
For `N#CC1(c2ccc(Cl)cc2Cl)CC1` the value was 81 to 85 °C.
As for `O=[N+]([O-])c1ccc2c(O)c(-c3ccc(-c4[nH]c5cc([N+](=O)[O-])ccc5c4O)cc3)[nH]c2c1`, the melting point amounted to 360 °C.
For `c1cc2c(c(NC3=NCCN3)c1)CCCC2` the value was 142 °C.
In turn, `CCCCNC(=O)C(C(F)(F)F)C(F)(F)F` registered a melting point of 94 °C.
Under `O=C(O)CCC(=O)c1ccc(Br)cc1` stands 146 to 147 °C; under `NCCCNCCN`, 10 °C.
For `CCNc1ccc([N+](=O)[O-])cc1[N+](=O)[O-]` the value was 108 to 119 °C; for `CC(O)CNCCN` (configuration not stated), -50 °C; for `CCN(CC)C(=O)c1ccc(O)c(OC)c1`, 95 °C.
Under `CCOC(=O)C(=CN(O)c1ccccc1)c1ccccc1` stands 75 °C; under `NNC(=O)c1cccc(N)c1`, 92 °C.
In turn, `CCOC(=O)NNC(=O)Nc1ccc(Cl)cc1` displayed a melting point of 194 °C.
For `CCOC(=O)CCC(C)C1CCC2C3C(=O)CC4CC(O)CCC4(C)C3CC(O)C12C` (configuration not stated) the value was 161 °C; for `O=C1CC(c2cccc(C3=NOC(=O)C3)c2)=NO1`, 190 °C.
For `CC(C)(C)OC(=O)NC(Cc1ccc(OCc2ccccc2)cc1)C(=O)O` (configuration not stated) the value was 109 °C; for `CCOc1ccc(N=Nc2ccc(OCC)cc2)cc1`, 162 °C.
On to `COc1c(OC)c2occc2c2oc(=O)ccc12`, for which the melting point was 119 °C.
Under `O=C(Oc1c(F)c(F)c(F)c(F)c1F)c1ccc(-c2cccs2)nc1` stands 140 to 142 °C; under `Cc1c(Cl)cccc1C#N`, 21.5 °C.
For `Ic1ccc(-c2ccno2)cc1` the value was 139 to 140 °C; for `CCC(CO)[N+](=O)[O-]` (configuration not stated), -47 °C.
`Cc1ccc(N)c([N+](=O)[O-])c1` gave a melting point of 116 °C.
`O=[N+]([O-])c1ccc(C=Cc2ccc([N+](=O)[O-])cc2S(=O)(=O)Oc2ccccc2)c(S(=O)(=O)Oc2ccccc2)c1` registered a melting point of 192 °C.
Under `C1CC2CC1C1OC21` (configuration not stated) stands 123 °C; under `NC(CCc1ccccc1)C(=O)O` (single isomer, unassigned; (-)), 300 °C.
In turn, `CCN(CC)c1cc(Cl)c2nonc2c1[N+](=O)[O-]` returned a melting point of 132 to 135 °C.
Compound `Cn1c(=O)cc(NN)c2ccccc21` had a melting point of 216 °C.
For `Cc1ccc(C(O)c2cc(C)ccc2O)cc1` (configuration not stated) the value was 98 °C.
Under `ON=C(Cc1ccccc1)c1cccc2ccccc12` stands 150 °C; under `CCNc1nc(Cl)nc(N(CC)CC)n1`, 102 °C; under `O=C(O)c1ccc(-n2cncn2)cc1`, 318 to 320 °C.
As to `CCOC(=O)c1c(N)sc2c1CCN(C(=O)OC(C)(C)C)C2`, the melting point was 153 °C.
In the case of `COC(=O)c1sc(C(F)(F)F)c(-c2ccccc2)c1N`, the melting point is 119 to 120 °C.
Consider `Cc1ccc(Nc2ccc([N+](=O)[O-])cc2N)cc1`, for which the melting point stood at 160 °C.
For `OCc1cc(C(F)(F)F)ccc1N1CCOCC1` the value was 83 to 84 °C.
Regarding `Cc1ccc(S(=O)(=O)NN=Cc2ccccc2[N+](=O)[O-])cc1`, the melting point is 153 to 156 °C.
Compound `NC(CSCc1ccccc1)C(=O)Nc1ccc([N+](=O)[O-])cc1` (configuration not stated) returned a melting point of 100 to 102 °C.
For `Nc1cc(C(F)(F)F)ccc1[N+](=O)[O-]` the value was 100 °C.
`COc1cccc(OC)c1`: the melting point was -52 °C.
Regarding `CC(=O)OCC1OC(C#N)=CC(OC(C)=O)C1OC(C)=O` (configuration not stated), the melting point lay in the range of 112 to 115 °C.
For `COc1cc(Cl)c(Cl)c(Cl)c1OC` the value was 66 °C; for `CC(=O)Oc1ccc(C(C)(C)c2ccc(OC(C)=O)cc2)cc1`, 86 to 91 °C.
Compound `O=C(N[C@H](Cc1ccc(Cl)cc1)C(=O)O)OCC1c2ccccc2-c2ccccc21` displayed a melting point of 147 °C.
For `Oc1ccc(O)c2c1C1CCC2C1` the value was 172 to 178 °C; for `O=C(O)Cc1ccc(OCc2ccccc2)cc1`, 123 to 124 °C; for `O=C(O)CS(=O)(=O)c1ccccc1`, 112 to 114 °C.
For `O=C1C=CC(=O)N1c1ccccc1N1C(=O)C=CC1=O` the value was 245 to 248 °C.
Under `Cc1c(N/N=C(/C#N)c2nc(-c3ccccc3)cs2)c(=O)n(-c2ccccc2)n1C` stands 226 °C.
For `CC1=NN(c2ccccc2)C(=O)/C1=N\Nc1cccc(C(F)(F)F)c1`, the melting point turned out to be 171 °C.
Under `COc1ccc(C(=O)OCCOc2ccc(C=CC(=O)c3ccccc3)cc2)cc1` stands 113 °C; under `CC(C)C12C=CC(C)(CC1)OO2` (configuration not stated), 3.3 °C.
Under `O=C(O)c1cc(Br)cc(Br)c1` stands 224 to 226 °C; under `Cc1nc2ccccc2c(=O)n1-c1ccccc1Cl`, 126 °C; under `COC1(OC)c2ccccc2C(O)(c2ccccc2)c2ccccc21`, 189 °C.
Under `c1coc(P(c2ccco2)c2ccco2)c1` stands 62 °C; under `NC(CCCC(F)(F)F)C(=O)O` (configuration not stated), 272 to 274 °C.
On to `O=C(Nc1ccc(N=Nc2ccc(N=Nc3ccc(NC(=O)c4ccccc4)cc3)cc2)cc1)c1ccccc1`, for which the melting point turned out to be 336 °C.
Under `NS(=O)(=O)c1ccc(Sc2cccs2)s1` stands 105 to 108 °C; under `NS(=O)(=O)c1c(F)cccc1F`, 190 °C; under `CC1CCC(C(C)C)C(OC(=O)C#Cc2ccccc2)C1` (configuration not stated), 64 °C.
In turn, `O=Cc1ccccc1N1CCOCC1` displayed a melting point of 45 to 46 °C.
For `COc1ccc2c(c1)CC1(CCC(=O)C(C(=O)O)C1)C2=O` (configuration not stated) the value was 120 °C; for `CN(C)C(=O)NC1CC2CC1C1CCCC21` (configuration not stated), 177 °C; for `CC(=O)c1cc(Br)cc([N+](=O)[O-])c1O`, 131 °C.
For `CCOC(=O)C(=CNc1cc(C)nn1C)C(=O)OCC` the value was 85 to 88 °C; for `CCCCCCCCCCCCCCCC(=O)OC(=O)CCCCCCCCCCCCCCC`, 64 °C.
For `O=C(O)c1nn(Cc2ccc(Cl)cc2Cl)c2ccccc12` the value was 207 °C; for `CC(C)=CCCC=C(C)C`, -74.4 °C.
`OCc1cc(-c2ccco2)[nH]n1` displayed a melting point of 159 °C.
